Experiments:
[1] = target: T1, MEKK2 (Homo sapiens, UniProt Q9Y2U5); experiment: MEKK2 intrinsic ATPase activity assay; format: biochemical; conditions: for inhibition at 1 µM: read-out: Inhibition in MEKK2 intrinsic ATPase assay screen (hit criterion)
T1 sequence (Q9Y2U5 1-619): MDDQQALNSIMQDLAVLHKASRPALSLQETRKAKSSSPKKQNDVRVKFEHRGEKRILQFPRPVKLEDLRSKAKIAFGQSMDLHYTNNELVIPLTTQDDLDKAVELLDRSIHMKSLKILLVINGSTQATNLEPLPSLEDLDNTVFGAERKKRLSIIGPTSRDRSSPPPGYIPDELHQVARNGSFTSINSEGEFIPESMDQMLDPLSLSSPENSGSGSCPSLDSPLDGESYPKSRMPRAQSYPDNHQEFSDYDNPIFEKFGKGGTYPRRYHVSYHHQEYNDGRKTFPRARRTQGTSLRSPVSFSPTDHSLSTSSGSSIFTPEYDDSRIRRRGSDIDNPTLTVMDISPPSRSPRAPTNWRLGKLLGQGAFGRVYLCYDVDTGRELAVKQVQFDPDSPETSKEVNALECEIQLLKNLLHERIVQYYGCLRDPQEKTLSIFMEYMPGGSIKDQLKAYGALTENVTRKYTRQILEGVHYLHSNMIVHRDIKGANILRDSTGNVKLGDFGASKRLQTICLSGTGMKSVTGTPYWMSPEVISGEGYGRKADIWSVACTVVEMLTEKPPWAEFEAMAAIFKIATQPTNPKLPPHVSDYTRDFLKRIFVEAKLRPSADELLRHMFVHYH

[2] = tested on: MEKK2; conditions: read-out: Published MEKK2 Binding Assay IC50; TR-FRET binding assay; ref Invitrogen Lanthascreen Eu Kinase Binding Assay for MEKK2 Validation Packet; cited from earlier work
[3] = target: T1, MEKK2; experiment: MEKK2 transphosphorylation activity assay; format: biochemical; conditions: 2 nM MEKK2, 200 nM MKK6, 3 μM ATP
[4] = tested on: MEKK2; experiment: MEKK2 intrinsic ATPase activity assay; format: biochemical, human; conditions: high compound concentrations
[5] = target: T2, MEKK2 (Homo sapiens, UniProt Q9Y2U5); experiment: MEKK2 intrinsic ATPase activity assay; format: biochemical; conditions: MEKK2 from vendor 3 (catalytic domain only)
T2 sequence (Q9Y2U5 357-619): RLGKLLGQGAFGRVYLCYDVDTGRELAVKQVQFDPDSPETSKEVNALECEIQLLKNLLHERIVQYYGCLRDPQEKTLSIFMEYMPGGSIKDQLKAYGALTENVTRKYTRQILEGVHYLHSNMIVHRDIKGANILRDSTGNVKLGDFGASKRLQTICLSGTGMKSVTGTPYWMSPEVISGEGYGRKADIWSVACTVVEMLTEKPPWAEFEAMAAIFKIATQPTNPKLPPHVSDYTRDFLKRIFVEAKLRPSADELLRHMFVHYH

[6] = target: T1, MEKK2; experiment: MEKK2 TR-FRET binding assay; conditions: 5 nM MEKK2, 25 nM kinase tracer 236
[7] = 10 nM MEKK2 (vendor 1), 30 μM ATP

Row | MEKK2 Intrinsic ATPase Assay Hill Slope ± SD [1, 7] | Binding Assay Hill Slope ± SD [6] | Compound | IC50 [2] [µM] | Transphosphorylation Assay Hill Slope ± SD [3] | inhibition at 1 µM [1] [%] | further results
1 | 0.97 ± 0.13 | – | Cc1cc(Nc2cc(N3CCN(C)CC3)nc(Sc3ccc(NC(=O)C4CC4)cc3)n2)[nH]n1 [VX-680] | 2.3 | – | – | –
2 | 1.10 ± 0.20 | – | Cc1nc(Nc2ncc(C(=O)Nc3c(C)cccc3Cl)s2)cc(N2CCN(CCO)CC2)n1 [Dasatinib] | […] | – | – | –
3 | 1.06 ± 0.16 | 0.89 ± 0.04 | CCN(CC)CCNC(=O)c1c(C)[nH]c(/C=C2\C(=O)Nc3ccc(F)cc32)c1C [Sunitinib] | […] | 0.96 ± 0.15 | – | Inhibition of ATPase activity at high compound concentrations [4]: complete inhibition; Difference in IC50 values between ATPase and binding assay ([1]; ATPase assay vs TR-FRET binding assay): 2.4 fold; Intrinsic ATPase assay Hill slope ± SD ([1]; MEKK2 from vendor 2): 1.01 ± 0.02; Intrinsic ATPase assay Hill slope ± SD [5]: 1.01 ± 0.05
4 | – | – | CN[C@@H]1C[C@H]2O[C@@](C)([C@@H]1OC)n1c3ccccc3c3c4c(c5c6ccccc6n2c5c31)C(=O)NC4 [Staurosporine] | – | – | – | MEKK2 Intrinsic ATPase Assay Hill Slope ± SD ([1]; 1 nM (instead of 10 nM) MEKK2 enzyme): 0.93 ± 0.13
5 | 1.06 ± 0.07 | 1.05 ± 0.03 | Cc1ccc(Nc2nccc(N(C)c3ccc4c(C)n(C)nc4c3)n2)cc1S(N)(=O)=O [Pazopanib] | – | – | ≥ 50 | –

Row | Compound | MEKK2 Intrinsic ATPase Assay Hill Slope ± SD [1, 7] | Binding Assay Hill Slope ± SD [6] | IC50 [2] [µM] | Transphosphorylation Assay Hill Slope ± SD [3] | inhibition at 1 µM [1] [%] | further results
6 | COc1cc(Nc2c(C#N)cnc3cc(OCCCN4CCN(C)CC4)c(OC)cc23)c(Cl)cc1Cl [Bosutinib] | 1.07 ± 0.09 | 0.93 ± 0.05 | – | 1.03 ± 0.21 | ≥ 50 | –

Reference: paper PMC3723327 (Journal of biomolecular screening, 2012)
